Results reported in ChEMBL document CHEMBL1201862, “PubChem BioAssay data set” (2004).
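Each compound was tested at five concentrations against cells in 96-well plates for 48 hours. At the GI50, growth is halved.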 The source made the active and inactive calls. Cut-off read from the data, not from the text of the source: active = GI50 up to about 1.1 µM and inactive = higher.

Columns and labels:
Experiment in all cases: inhibition of tumour cell growth, NCI panel, 48 h
M14 = test system: M14
NCI-H460 = test system: NCI-H460
MCF7 = test system: MCF7
OVCAR-5 = test system: OVCAR-5
A549 = test system: A549
HCC 2998 = test system: HCC 2998
SK-MEL-2 = test system: SK-MEL-2
Hs-578T = test system: Hs-578T
PC-3 = test system: PC-3
IGROV-1 = test system: IGROV-1
SK-MEL-28 = test system: SK-MEL-28
EKVX = test system: EKVX
HOP-92 = test system: HOP-92
SF-295 = test system: SF-295
T47D = test system: T47D
HCT-15 = test system: HCT-15
SK-OV-3 = test system: SK-OV-3
NCI-H522 = test system: NCI-H522
MOLT-4 = test system: MOLT-4
LOX IMVI = test system: LOX IMVI
SK-MEL-5 = test system: SK-MEL-5
CCRF-CEM = test system: CCRF-CEM
BT-549 = test system: BT-549
OVCAR-8 = test system: OVCAR-8
SNB-75 = test system: SNB-75
DU-145 = test system: DU-145
HCT-116 = test system: HCT-116
NCI-H23 = test system: NCI-H23
TK-10 = test system: TK-10
ACHN = test system: ACHN
SF-268 = test system: SF-268
KM12 = test system: KM12
SNB-19 = test system: SNB-19
SR = test system: SR
UACC-257 = test system: UACC-257
CAKI-1 = test system: CAKI-1
UACC-62 = test system: UACC-62
U-251 = test system: U-251
A498 = test system: A498
RXF 393 = test system: RXF 393
HL-60 = test system: HL-60
UO-31 = test system: UO-31
COLO 205 = test system: COLO 205
MDA-MB-231 = test system: MDA-MB-231
SW-620 = test system: SW-620
RPMI-8226 = test system: RPMI-8226
NCI/ADR-RES = test system: NCI/ADR-RES
OVCAR-4 = test system: OVCAR-4
NCI-H226 = test system: NCI-H226
HT-29 = test system: HT-29
SN12C = test system: SN12C
Malme-3M = test system: Malme-3M
HOP-62 = test system: HOP-62
SF-539 = test system: SF-539
OVCAR-3 = test system: OVCAR-3
786-0 = test system: 786-0
MDA-MB-435 = test system: MDA-MB-435
K562 = test system: K562

Measured: GI50

C/C(=N\Nc1nc2ccccc2o1)c1ccncn1
active: M14 126 nM | NCI-H460 96.4 nM | MCF7 55.6 nM | A549 240 nM | HCC 2998 1020 nM | SK-MEL-2 277 nM | Hs-578T 955 nM | PC-3 310 nM | IGROV-1 116 nM | SK-MEL-28 513 nM | EKVX 52.6 nM | HOP-92 124 nM | SF-295 363 nM | T47D 84.5 nM | SK-OV-3 294 nM | NCI-H522 41.9 nM | MOLT-4 30.5 nM | LOX IMVI 124 nM | SK-MEL-5 181 nM | CCRF-CEM 48.1 nM | OVCAR-8 92.9 nM | SNB-75 457 nM | HCT-116 71.3 nM | NCI-H23 360 nM | TK-10 1120 nM | ACHN 63.8 nM | SF-268 132 nM | KM12 163 nM | SNB-19 432 nM | SR 64.7 nM | UACC-257 396 nM | CAKI-1 47.1 nM | UACC-62 280 nM | U-251 162 nM | A498 450 nM | HL-60 21.8 nM | UO-31 47.9 nM | COLO 205 42.7 nM | MDA-MB-231 169 nM | SW-620 45.5 nM | RPMI-8226 109 nM | NCI/ADR-RES 190 nM | OVCAR-4 129 nM | NCI-H226 228 nM | HT-29 35.6 nM | SN12C 225 nM | Malme-3M 124 nM | HOP-62 228 nM | SF-539 258 nM | OVCAR-3 52.4 nM | 786-0 86.9 nM | MDA-MB-435 247 nM | K562 51.4 nM
47.6 nM: HCT-15
inactive: OVCAR-5 4360 nM | BT-549 5190 nM | DU-145 1260 nM | RXF 393 2290 nM

COc1cc(S(=O)(=O)Nc2ccc(-c3csc(/N=C\c4cccc(Oc5ccccc5)c4)n3)cc2)ccc1Cl
inactive: M14 17000 nM | MCF7 5200 nM | OVCAR-5 26300 nM | A549 4620 nM | SK-MEL-2 40500 nM | Hs-578T 60400 nM | PC-3 36700 nM | IGROV-1 28800 nM | SK-MEL-28 36100 nM | EKVX 8390 nM | HOP-92 20100 nM | SF-295 47100 nM | T47D 16200 nM | NCI-H522 26100 nM | MOLT-4 23000 nM | LOX IMVI 19300 nM | SK-MEL-5 27900 nM | CCRF-CEM 32000 nM | BT-549 32700 nM | OVCAR-8 25600 nM | SNB-75 30800 nM | DU-145 25500 nM | HCT-116 14600 nM | NCI-H23 45900 nM | ACHN 15500 nM | SF-268 34600 nM | KM12 31800 nM | SNB-19 8850 nM | SR 21100 nM | CAKI-1 74800 nM | UACC-62 6440 nM | RXF 393 20100 nM | HL-60 23200 nM | UO-31 29900 nM | COLO 205 34700 nM | SW-620 40300 nM | RPMI-8226 21600 nM | NCI/ADR-RES 96400 nM | OVCAR-4 41800 nM | NCI-H226 47500 nM | HT-29 9750 nM | SN12C 25100 nM | Malme-3M 47800 nM | HOP-62 44900 nM | SF-539 33900 nM | OVCAR-3 31900 nM | 786-0 5580 nM | MDA-MB-435 30800 nM | K562 22600 nM
35600 nM: HCT-15

CCOC(=O)C1=C(C)N(c2ccc(Cl)cc2)C2(O)C=CC(Nc3ccc(Cl)cc3)=C3C(=O)N(c4ccccc4)C(=O)C312 (stereo not given)
active: HOP-92 791 nM | OVCAR-3 313 nM
inactive: M14 3130 nM | NCI-H460 2110 nM | MCF7 2050 nM | OVCAR-5 3960 nM | A549 3520 nM | SK-MEL-2 2580 nM | Hs-578T 5510 nM | PC-3 2940 nM | IGROV-1 5360 nM | SK-MEL-28 2360 nM | SF-295 3180 nM | T47D 3840 nM | SK-OV-3 8850 nM | NCI-H522 1340 nM | MOLT-4 2120 nM | LOX IMVI 1670 nM | SK-MEL-5 2390 nM | CCRF-CEM 1640 nM | BT-549 1540 nM | OVCAR-8 3640 nM | SNB-75 4180 nM | DU-145 4270 nM | NCI-H23 5420 nM | TK-10 13600 nM | ACHN 6750 nM | SF-268 2400 nM | KM12 4340 nM | SNB-19 5680 nM | SR 2880 nM | UACC-257 13300 nM | CAKI-1 1870 nM | UACC-62 1440 nM | U-251 4850 nM | A498 1830 nM | HL-60 2970 nM | UO-31 4890 nM | COLO 205 2440 nM | MDA-MB-231 4250 nM | SW-620 3740 nM | RPMI-8226 1320 nM | NCI/ADR-RES 2750 nM | OVCAR-4 3150 nM | HT-29 3660 nM | SN12C 2450 nM | Malme-3M 7710 nM | HOP-62 1630 nM | SF-539 3870 nM | MDA-MB-435 1780 nM | K562 3230 nM
3450 nM: HCT-15
